Test results reported in patent publication US9695181B2, “Hydroximic acid derivatives and medical applications therof” (Double Rider Medicine Co., LTD., priority 2013, dated 2017).

Assays:
Format in all cases: biochemical
[1] = target: KDR (VEGFR2) protein tyrosine kinase (Homo sapiens (Human), UniProt P35968); assay: Inhibition of KDR (VEGFR2) protein tyrosine kinase substrate phosphorylation, ELISA; conditions: for IC50: ELISA, ATP 5 μM, * average of three experiments ± SD, ** one experiment
Method: Kinase reaction substrate Poly(Glu, Tyr)4:1 (SIGMA);
(§1) (1) Kinase reaction substrate Poly(Glu,Tyr)4:1 was diluted to 20 µg/ml with potassium ion-free PBS, and enzyme labeled plate was coated by the substrate, reacted at 37° C. for 12-16 h, and then the liquid in holes was removed.
(§2) (2) Enzyme labeled plate was washed with T-PBS for 10 min three times.
(§3) (3) Enzyme labeled plate was dried at 37° C. in a dryer.
(§4) (4) The tested samples were added into holes of the coated enzyme labeled plate:
(§5) The tested samples was firstly formulated to be a 10^−2 M stock solution in DMSO, subpackaged and storaged at −20° C., and then diluted to required concentration with reaction buffer before use, added into the experiment holes to reach corresponding final concentration in a 100 μL reaction system. Meanwhile, positive control holes were created, and added with positive control compound Su11248.
(§6) (5) Adding ATP and the tested tyrosine kinase:
(§7) ATP solution (final concentration 5 μM) diluted with reaction buffer was added, and then tested tyrosine kinase diluted with reaction buffer was added. Total volume of the reaction system was 100 μL. Meanwhile, negative control holes and enzyme-free control holes were created.
(6) The reaction systems were placed in a wet box, reacted at 37° C. on a shaking table for 1 hour under a condition that light was prohibited, and after the reaction, the plate was washed with T-PBS for three times.
(7) Antibody PY99 100 μL/hole was added, reacted at 37° C. on a shaking table for 30 minutes. The plate was washed for three times with T-PBS.
(§8) (8) Horseradish peroxidase labeled Sheep anti mouse IgG 100 μL/hole was added, and reacted at 37° C. on a shaking table for 30 minutes. The plate was washed for three times with T-PBS.
(§9) (9) OPD coloring solution 100 μL/hole was added, and reacted at room temperature for 1-10 minutes under a condition that light was prohibited.
(§10) (10) 2M H2SO4 50 μL was added to terminate the reaction, and value A490 was measured by tunable wavelength type micro plate (Molecular Devices SPECTRAMAX190).
(§11) (11) The inhibition rate of the sample was obtained by the following equation:
(§12) [formula] Experimental Result

[2] = target: PDGFR-β (Platelet-Derived Growth Factor Receptor β) protein tyrosine kinase (Homo sapiens (Human), UniProt P09619); assay: Inhibition of PDGFR-β protein tyrosine kinase substrate phosphorylation, ELISA; conditions: for IC50: ELISA, ATP 5 μM, * average of three experiments ± SD, ** one experiment; for inhibition of the activity of PDGFR-β tyrosine kinase, conclusion in words: at the molecular level
Sequence of PDGFR-β (Platelet-Derived Growth Factor Receptor β) protein tyrosine kinase (P09619 33-1106): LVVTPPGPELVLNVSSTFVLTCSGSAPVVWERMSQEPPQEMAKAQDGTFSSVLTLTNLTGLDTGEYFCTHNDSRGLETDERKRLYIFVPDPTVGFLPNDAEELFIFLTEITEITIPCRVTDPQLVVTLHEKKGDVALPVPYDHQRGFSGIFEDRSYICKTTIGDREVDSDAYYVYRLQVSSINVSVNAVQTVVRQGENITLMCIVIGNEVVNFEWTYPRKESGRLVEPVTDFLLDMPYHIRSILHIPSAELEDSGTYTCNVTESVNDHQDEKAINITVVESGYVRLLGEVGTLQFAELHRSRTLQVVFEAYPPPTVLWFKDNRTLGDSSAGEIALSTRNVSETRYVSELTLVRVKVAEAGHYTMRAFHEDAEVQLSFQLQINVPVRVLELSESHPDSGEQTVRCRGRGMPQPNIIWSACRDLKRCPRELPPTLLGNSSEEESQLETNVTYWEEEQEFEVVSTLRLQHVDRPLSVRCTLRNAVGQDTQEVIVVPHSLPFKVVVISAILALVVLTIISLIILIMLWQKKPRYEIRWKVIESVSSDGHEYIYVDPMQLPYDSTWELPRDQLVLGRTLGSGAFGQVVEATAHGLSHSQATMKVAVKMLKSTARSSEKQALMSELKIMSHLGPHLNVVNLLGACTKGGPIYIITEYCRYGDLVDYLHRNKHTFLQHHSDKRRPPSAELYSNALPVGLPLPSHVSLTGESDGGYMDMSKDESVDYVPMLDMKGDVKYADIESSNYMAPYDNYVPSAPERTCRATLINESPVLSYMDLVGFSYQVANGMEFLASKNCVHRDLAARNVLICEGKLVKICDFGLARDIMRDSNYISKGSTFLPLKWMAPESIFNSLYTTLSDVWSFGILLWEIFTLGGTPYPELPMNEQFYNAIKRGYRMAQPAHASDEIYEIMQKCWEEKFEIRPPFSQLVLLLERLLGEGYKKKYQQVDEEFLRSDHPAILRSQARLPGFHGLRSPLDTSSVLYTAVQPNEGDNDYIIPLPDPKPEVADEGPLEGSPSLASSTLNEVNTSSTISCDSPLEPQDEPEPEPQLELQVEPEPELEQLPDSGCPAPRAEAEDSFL
Method: Embodiment 19: Inhibition of Compound IIa, IIb, IIc and IId on the Activity of Catalyzing Substrate Phosphorylation of PDGFR-β (Platelet-Derived Growth Factor Receptor β) Protein Tyrosine Kinase at the Molecular Level: Enzyme-Linked Immunosorbent Assay (ELISA)
Tyrosine kinase PDGFR-β (MILLIPORE);
Kinase reaction substrate Poly(Glu,Tyr)4:1 (SIGMA);
as §1, §2, §3, §4
as §5, with “were” for “was”, “and” for “and added with”, “Su11248 was added.” for “Su11248.”
as §6, §7
(6) The reaction system were placed in a wet box, reacted at 37° C. on a shaking table for 1 hour under a condition that light was prohibited, and after the reaction, the plate was with T-PBS washed for three times.
(7) Antibody PY99 100 μL/hole was added, and reacted at 37° C. on a shaking table for 30 minutes. The plate was washed for three times with T-PBS.
as §8, §9, §10, §11, §12

Human HDAC1 = Human HDAC1 (Homo sapiens (Human), UniProt Q13547); assay: Inhibition of catalyzing activity of histone deacetylase 1 (HDAC1), fluorescence detection; conditions: for IC50: substrate Ac-Lys-Tyr-Lys(Ac)-AMC, * average of three experiments ± SD, ** one experiment
Sequence of Human HDAC1 (Q13547 whole entry): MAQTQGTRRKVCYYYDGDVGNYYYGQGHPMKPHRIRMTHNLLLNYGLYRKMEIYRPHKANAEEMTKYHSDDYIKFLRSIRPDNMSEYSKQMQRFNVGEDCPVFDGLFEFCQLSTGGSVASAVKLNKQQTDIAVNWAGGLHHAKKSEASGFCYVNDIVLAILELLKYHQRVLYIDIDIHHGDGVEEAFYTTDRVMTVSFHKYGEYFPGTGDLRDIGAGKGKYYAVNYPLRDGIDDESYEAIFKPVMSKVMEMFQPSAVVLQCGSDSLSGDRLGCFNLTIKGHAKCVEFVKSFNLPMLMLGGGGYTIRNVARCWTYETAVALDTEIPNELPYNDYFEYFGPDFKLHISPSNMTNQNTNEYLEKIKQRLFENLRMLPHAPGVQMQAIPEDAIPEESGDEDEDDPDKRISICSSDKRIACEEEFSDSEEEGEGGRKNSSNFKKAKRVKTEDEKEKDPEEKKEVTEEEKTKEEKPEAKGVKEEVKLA
Method: Human HDAC1, obtained by utilizing baculovirus expression system;
Substrate, Ac-Lys-Tyr-Lys (Ac)-AMC;
Enzymatic activity was tested in 96-well or 384-well flat microwell plate by fluorescence detection and taking Ac-Lys-Tyr-Lys(Ac)-AMC as substrate. The tested samples was firstly formulated to be a 10^−2 M stock solution in DMSO, subpackaged and storaged at −20° C., and then diluted to required concentration with reaction buffer before use. […] The initial reaction speed was calculated by detecting the change of fluorescence signal with time.

Sequence of KDR (VEGFR2) protein tyrosine kinase (P35968 20-1356, species assumed): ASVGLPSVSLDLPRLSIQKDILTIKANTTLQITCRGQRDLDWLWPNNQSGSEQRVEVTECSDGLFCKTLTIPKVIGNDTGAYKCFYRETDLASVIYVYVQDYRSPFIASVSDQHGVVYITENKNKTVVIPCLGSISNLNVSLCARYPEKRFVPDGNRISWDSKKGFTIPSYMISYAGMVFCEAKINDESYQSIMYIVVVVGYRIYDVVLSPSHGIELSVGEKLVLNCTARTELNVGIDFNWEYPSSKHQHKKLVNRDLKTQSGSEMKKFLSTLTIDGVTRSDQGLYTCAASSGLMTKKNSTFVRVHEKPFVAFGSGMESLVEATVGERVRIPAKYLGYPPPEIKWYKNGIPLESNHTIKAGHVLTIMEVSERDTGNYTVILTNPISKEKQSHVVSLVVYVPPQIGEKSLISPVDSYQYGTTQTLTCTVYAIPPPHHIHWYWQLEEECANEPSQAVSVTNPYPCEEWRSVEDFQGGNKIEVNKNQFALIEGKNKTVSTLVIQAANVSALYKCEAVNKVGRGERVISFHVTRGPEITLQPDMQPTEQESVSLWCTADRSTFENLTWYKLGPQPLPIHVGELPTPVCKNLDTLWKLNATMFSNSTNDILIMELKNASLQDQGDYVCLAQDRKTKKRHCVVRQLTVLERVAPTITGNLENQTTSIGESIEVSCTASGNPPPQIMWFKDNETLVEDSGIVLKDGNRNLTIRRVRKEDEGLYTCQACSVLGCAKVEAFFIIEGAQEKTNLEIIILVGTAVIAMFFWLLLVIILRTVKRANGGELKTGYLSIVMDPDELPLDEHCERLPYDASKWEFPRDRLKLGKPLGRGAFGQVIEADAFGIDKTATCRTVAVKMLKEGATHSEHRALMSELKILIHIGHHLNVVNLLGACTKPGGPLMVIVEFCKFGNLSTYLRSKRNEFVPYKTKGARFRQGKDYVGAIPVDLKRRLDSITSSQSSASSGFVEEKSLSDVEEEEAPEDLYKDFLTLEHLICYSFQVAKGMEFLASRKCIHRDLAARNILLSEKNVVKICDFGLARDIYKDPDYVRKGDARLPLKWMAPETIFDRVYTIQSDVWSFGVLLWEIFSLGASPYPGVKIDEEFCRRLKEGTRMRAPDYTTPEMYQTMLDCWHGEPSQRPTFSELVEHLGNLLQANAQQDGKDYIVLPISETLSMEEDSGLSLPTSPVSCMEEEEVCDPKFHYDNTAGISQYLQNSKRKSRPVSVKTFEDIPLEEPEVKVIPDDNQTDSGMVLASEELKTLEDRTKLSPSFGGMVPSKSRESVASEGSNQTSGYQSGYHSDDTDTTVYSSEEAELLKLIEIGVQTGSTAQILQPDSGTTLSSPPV

IC50 [1]	IC50 [2]	IC50 (Human HDAC1)	inhibition of the activity of VEGFR2 tyrosine kinase, conclusion in words ([1]; at the molecular level)	inhibition of the activity of PDGFR-β tyrosine kinase, conclusion in words [2]	inhibition of the activity of HDAC1, conclusion in words (Human HDAC1; at the molecular level)	SMILES
3 ± 1 nM	2.9 ± 1.5 nM	1090 ± 210 nM				Cc1cccc(NC(=O)Nc2ccc(-c3nn(CCCCCCCC(=O)NO)c4ncnc(N)c34)cc2)c1 [Compound IIa]
2.2 ± 0.9 nM	0.5 ± 0.1 nM	470 ± 70 nM				Cc1ccc(F)c(NC(=O)Nc2ccc(-c3nn(CCCCCCCC(=O)NO)c4ncnc(N)c34)cc2)c1 [Compound IIb]
572 nM	146 nM	8650 nM	well inhibit	well inhibit	well inhibit	Cc1cccc(NC(=O)Nc2ccc(-c3nn(CCCN(C)CCCC(=O)NO)c4ncnc(N)c34)cc2)c1 [Compound IIc]
1190 nM	99.9 nM	13800 nM		well inhibit		Cc1cccc(NC(=O)Nc2ccc(-c3nn(CCCN(C)CCCC(=O)NO)c4ncnc(N)c34)cc2)c1 [Compound IId]
